Source: patent publication US10597388B2, “Pyridazinone herbicides” (FMC CORPORATION, priority 2014, dated 2020)

Assays:
Format in all cases: in vivo
kochia (Kochia scoparia) = assay: Test C greenhouse herbicide test, postemergence
Summary of the method: (§1)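 Plants grown in potting mix of peat moss, vermiculite, wetting agent and starter nutrients were sprayed postemergence at 2 to 18 cm height (1- to 4-leaf stage). After 13 to 15 d in the greenhouse, injury was visually rated against untreated controls on a 0–100 scale (0 no effect, 100 complete control).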

[1] = system: oat, wild (wild oat, Avena fatua); assay: Test C greenhouse herbicide test, postemergence
Summary of the method: as §1

[2] = system: chickweed (common chickweed, Stellaria media); assay: Test C greenhouse herbicide test, postemergence
Summary of the method: as §1

[3] = system: johnsongrass (Sorghum halepense); assay: Test C greenhouse herbicide test, pre- and postemergence
Summary of the method: (§2)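 Pre- and postemergence greenhouse screen; values are visual control ratings, 0 meaning no effect and 100 complete kill, assigned relative to untreated plants after 13 to 15 d.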

[4] = system: pigweed (Amaranthus retroflexus); assay: as above
Summary of the method: as §2

[5] = system: wheat (winter wheat, Triticum aestivum); assay: as above
Summary of the method: as §2

[6] = system: galium (catchweed bedstraw, Galium aparine); assay: Test A greenhouse herbicide test, postemergence; details: for Plant response rating, Galium: 125 g ai/ha; for Galium plant response rating: 500 g ai/ha, 0 to 100 scale, 0 is no effect, 100 is complete control
Summary of the method: (§3)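 Pot-grown plants (loam soil/sand blend), 2–10 cm tall at the one- to two-leaf stage, received postemergence sprays of formulated test chemical. After about 10 d in the greenhouse, injury was rated visually against untreated controls on a 0 (no effect) to 100 (complete control) scale.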

[7] = system: blackgrass (Alopecurus myosuroides); assay: Test A greenhouse herbicide test, postemergence; details: for Plant response rating, Blackgrass: 125 g ai/ha; for Blackgrass plant response rating: 500 g ai/ha, 0 to 100 scale, 0 is no effect, 100 is complete control
Summary of the method: as §3

rice (Oryza sativa) = assay: Test B flooded paddy test; details: 250 g ai/ha, Flood; visual rating on scale of 0 to 100 where 0 is no effect and 100 is complete control; 13 to 15 d after treatment
Summary of the method: (§4)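 Plants grown to the 2-leaf stage. At treatment, pots were flooded to 3 cm above the soil, compound was applied directly to the paddy water, and that depth was held throughout. After 13 to 15 d in the greenhouse, response was rated visually against controls on a 0 (no effect) to 100 (complete control) scale.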

[8] = system: barnyardgrass (Echinochloa crus-galli); assay: Test B flooded paddy test; details: 250 g ai/ha, Flood; visual rating on scale of 0 to 100 where 0 is no effect and 100 is complete control; 13 to 15 d after treatment
Summary of the method: as §4

[9] = system: ducksalad (Heteranthera limosa); assay: Test B flooded paddy test; details: 250 g ai/ha, Flood; visual rating on scale of 0 to 100 where 0 is no effect and 100 is complete control; 13 to 15 d after treatment
Summary of the method: as §4

[10] = system: sedge, umbrella (small-flower umbrella sedge, Cyperus difformis); assay: Test B flooded paddy test; details: 250 g ai/ha, Flood; visual rating on scale of 0 to 100 where 0 is no effect and 100 is complete control; 13 to 15 d after treatment
Summary of the method: as §4

[11] = Postemergence, 16 g ai/ha, scale 0 to 100 (0 no effect, 100 complete control)
[12] = Postemergence, 31 g ai/ha, 0 to 100 scale (0 no effect, 100 complete control)
[13] = postemergence, 62 g ai/ha, scale 0 to 100, 0 no effect, 100 complete control
[14] = Postemergence, 8 g ai/ha, scale 0 to 100 (0 no effect, 100 complete control)
[15] = Preemergence, 16 g ai/ha, scale 0 to 100, 0 is no effect, 100 is complete control
[16] = Preemergence, 31 g ai/ha, scale 0 to 100, 0 is no effect, 100 is complete control
[17] = Preemergence, 62 g ai/ha, scale 0 to 100, 0 is no effect, 100 is complete control
[18] = visual rating after approx. 10 d, 0 to 100 scale (0 no effect, 100 complete control)
[19] = Postemergence, 125 g ai/ha, scale 0 to 100, 0 is no effect, 100 is complete control
[20] = Postemergence, 250 g ai/ha, scale 0 to 100, 0 no effect, 100 complete control, 13 to 15 d
[21] = Preemergence, 125 g ai/ha, scale 0 to 100, 0 is no effect, 100 is complete control
[22] = Preemergence, 250 g ai/ha, scale 0 to 100, 0 no effect, 100 complete control
[23] = 0 to 100 scale where 0 is no effect and 100 is complete control

Cc1nn(C)c(=O)c(-c2c(C)sc3c(C)cc(Cl)cc23)c1O [Compound 35]
Plant response rating, Kochia (kochia (Kochia scoparia); [11]): 30
Kochia plant response rating (kochia (Kochia scoparia); [12]): 30
Kochia plant response rating (kochia (Kochia scoparia); [13]): 40
Plant response rating, Oat, Wild [1, 14]: 10
Plant response rating, Oat, Wild [1, 11]: 30
Oat, Wild plant response rating [1, 12]: 40
Oat, Wild plant response rating [1, 13]: 60
Plant response rating, Chickweed [2, 14]: 90
Plant response rating, Chickweed [2, 11]: 90
Chickweed plant response rating [2, 12]: 95
Chickweed plant response rating [2, 13]: 95
Plant response rating, Johnsongrass [3, 14]: 10
Plant response rating, Johnsongrass [3, 11]: 15
Johnsongrass plant response rating [3, 12]: 20
Plant response rating, Johnsongrass [3, 15]: 0
Plant response rating, Johnsongrass [3, 16]: 10
Plant response rating, Johnsongrass [3, 17]: 10
Johnsongrass plant response rating [3, 13]: 20
Plant response rating, Pigweed [4, 14]: 35
Plant response rating, Pigweed [4, 11]: 25
Pigweed plant response rating [4, 12]: 60
Plant response rating, Pigweed [4, 15]: 75
Plant response rating, Pigweed [4, 16]: 75
Plant response rating, Pigweed [4, 17]: 80
Pigweed plant response rating [4, 13]: 55
Plant response rating, Wheat [5, 14]: 0
Plant response rating, Wheat [5, 11]: 0
Wheat plant response rating [5, 12]: 0
Plant response rating, Wheat [5, 15]: 0
Plant response rating, Wheat [5, 16]: 0
Plant response rating, Wheat [5, 17]: 5
Wheat plant response rating [5, 13]: 5
Plant response rating, Galium [6, 18]: 100
Galium plant response rating [6]: 100
Plant response rating, Blackgrass [7, 18]: 70
Blackgrass plant response rating [7]: 80
Plant response rating, Rice (rice (Oryza sativa)): 0
Plant response rating, Barnyardgrass [8]: 0
Plant response rating, Ducksalad [9]: 75
Plant response rating, Sedge, Umbrella [10]: 65

Cc1nn(C)c(=O)c(-c2ccc(F)c3ccccc23)c1O [Compound 41]
Kochia plant response rating (kochia (Kochia scoparia); [12]): 100
Plant response rating, Kochia (kochia (Kochia scoparia); [19]): 100
Plant response rating, Kochia (kochia (Kochia scoparia); [20]): 100
Kochia plant response rating (kochia (Kochia scoparia); [13]): 100
Oat, Wild plant response rating [1, 12]: 55
Plant response rating, Oat, Wild [1, 19]: 90
Plant response rating, Oat, Wild [1, 20]: 95
Oat, Wild plant response rating [1, 13]: 90
Chickweed plant response rating [2, 12]: 95
Plant response rating, Chickweed [2, 19]: 90
Plant response rating, Chickweed [2, 20]: 100
Chickweed plant response rating [2, 13]: 95
Johnsongrass plant response rating [3, 12]: 5
Plant response rating, Johnsongrass [3, 19]: 10
Plant response rating, Johnsongrass [3, 20]: 35
Plant response rating, Johnsongrass [3, 16]: 0
Plant response rating, Johnsongrass [3, 17]: 50
Plant response rating, Johnsongrass [3, 21]: 35
Johnsongrass plant response rating [3, 22]: 35
Johnsongrass plant response rating [3, 13]: 10
Pigweed plant response rating [4, 12]: 65
Plant response rating, Pigweed [4, 19]: 75
Plant response rating, Pigweed [4, 20]: 95
Plant response rating, Pigweed [4, 16]: 75
Plant response rating, Pigweed [4, 17]: 100
Plant response rating, Pigweed [4, 21]: 100
Pigweed plant response rating [4, 22]: 100
Pigweed plant response rating [4, 13]: 75
Wheat plant response rating [5, 12]: 10
Plant response rating, Wheat [5, 19]: 30
Plant response rating, Wheat [5, 20]: 5
Plant response rating, Wheat [5, 16]: 0
Plant response rating, Wheat [5, 17]: 5
Plant response rating, Wheat [5, 21]: 50
Wheat plant response rating [5, 22]: 65
Wheat plant response rating [5, 13]: 0
Plant response rating, Galium [6, 23]: 80
Galium plant response rating [6]: 100
Plant response rating, Blackgrass [7, 23]: 70
Blackgrass plant response rating [7]: 90
Plant response rating, Rice (rice (Oryza sativa)): 0
Plant response rating, Barnyardgrass [8]: 30
Plant response rating, Ducksalad [9]: 40
Plant response rating, Sedge, Umbrella [10]: 40

CCc1sc2ccc(C)cc2c1-c1c(O)c(C)nn(C)c1=O [Compound 47]
Kochia plant response rating (kochia (Kochia scoparia); [12]): 75
Plant response rating, Kochia (kochia (Kochia scoparia); [19]): 95
Plant response rating, Kochia (kochia (Kochia scoparia); [20]): 98
Kochia plant response rating (kochia (Kochia scoparia); [13]): 90
Oat, Wild plant response rating [1, 12]: 5
Plant response rating, Oat, Wild [1, 19]: 30
Plant response rating, Oat, Wild [1, 20]: 50
Oat, Wild plant response rating [1, 13]: 10
Chickweed plant response rating [2, 12]: 90
Plant response rating, Chickweed [2, 19]: 98
Plant response rating, Chickweed [2, 20]: 98
Chickweed plant response rating [2, 13]: 90
Johnsongrass plant response rating [3, 12]: 10
Plant response rating, Johnsongrass [3, 19]: 20
Plant response rating, Johnsongrass [3, 20]: 25
Plant response rating, Johnsongrass [3, 16]: 0
Plant response rating, Johnsongrass [3, 17]: 0
Plant response rating, Johnsongrass [3, 21]: 0
Johnsongrass plant response rating [3, 22]: 0
Johnsongrass plant response rating [3, 13]: 10
Pigweed plant response rating [4, 12]: 90
Plant response rating, Pigweed [4, 19]: 98
Plant response rating, Pigweed [4, 20]: 98
Plant response rating, Pigweed [4, 16]: 100
Plant response rating, Pigweed [4, 17]: 100
Plant response rating, Pigweed [4, 21]: 100
Pigweed plant response rating [4, 22]: 100
Pigweed plant response rating [4, 13]: 90
Wheat plant response rating [5, 12]: 0
Plant response rating, Wheat [5, 19]: 0
Plant response rating, Wheat [5, 20]: 0
Plant response rating, Wheat [5, 16]: 0
Plant response rating, Wheat [5, 17]: 0
Plant response rating, Wheat [5, 21]: 0
Wheat plant response rating [5, 22]: 0
Wheat plant response rating [5, 13]: 0
Plant response rating, Galium [6, 23]: 90
Galium plant response rating [6]: 100
Plant response rating, Blackgrass [7, 23]: 60
Blackgrass plant response rating [7]: 70
Plant response rating, Rice (rice (Oryza sativa)): 0
Plant response rating, Barnyardgrass [8]: 0
Plant response rating, Ducksalad [9]: 0
Plant response rating, Sedge, Umbrella [10]: 0

CCc1sc2c(C)cc(C)cc2c1-c1c(O)c(C)nn(C)c1=O [Compound 57]
Kochia plant response rating (kochia (Kochia scoparia); [12]): 50
Plant response rating, Kochia (kochia (Kochia scoparia); [19]): 70
Plant response rating, Kochia (kochia (Kochia scoparia); [20]): 95
Kochia plant response rating (kochia (Kochia scoparia); [13]): 65
Oat, Wild plant response rating [1, 12]: 20
Plant response rating, Oat, Wild [1, 19]: 45
Plant response rating, Oat, Wild [1, 20]: 60
Oat, Wild plant response rating [1, 13]: 35
Chickweed plant response rating [2, 12]: 90
Plant response rating, Chickweed [2, 19]: 95
Plant response rating, Chickweed [2, 20]: 100
Chickweed plant response rating [2, 13]: 95
Johnsongrass plant response rating [3, 12]: 5
Plant response rating, Johnsongrass [3, 19]: 5
Plant response rating, Johnsongrass [3, 20]: 10
Plant response rating, Johnsongrass [3, 16]: 0
Plant response rating, Johnsongrass [3, 17]: 0
Plant response rating, Johnsongrass [3, 21]: 0
Johnsongrass plant response rating [3, 22]: 0
Johnsongrass plant response rating [3, 13]: 5
Pigweed plant response rating [4, 12]: 60
Plant response rating, Pigweed [4, 19]: 85
Plant response rating, Pigweed [4, 20]: 100
Plant response rating, Pigweed [4, 16]: 100
Plant response rating, Pigweed [4, 17]: 100
Plant response rating, Pigweed [4, 21]: 100
Pigweed plant response rating [4, 22]: 100
Pigweed plant response rating [4, 13]: 80
Wheat plant response rating [5, 12]: 0
Plant response rating, Wheat [5, 19]: 0
Plant response rating, Wheat [5, 20]: 5
Plant response rating, Wheat [5, 16]: 0
Plant response rating, Wheat [5, 17]: 0
Plant response rating, Wheat [5, 21]: 0
Wheat plant response rating [5, 22]: 5
Wheat plant response rating [5, 13]: 0
Plant response rating, Galium [6, 23]: 100
Galium plant response rating [6]: 100
Plant response rating, Blackgrass [7, 23]: 30
Blackgrass plant response rating [7]: 60
Plant response rating, Rice (rice (Oryza sativa)): 0
Plant response rating, Barnyardgrass [8]: 0
Plant response rating, Ducksalad [9]: 0
Plant response rating, Sedge, Umbrella [10]: 0
